“And” between values parts separate entries of the source, which are not always exact repeats. Equal entries are not always repeated.
What was measured:
[1] = distribution coefficient logD, n-octanol/PBS; type: physicochemical
Procedure: page 19: Figure S3: HPLC purification of [18F]PSMA-MIC02 (A) and after 4 h (B). 5. Distribution coefficient LogD. […] cup. 100 µL of the formulated final solution of [18F]PSMA-MIC01 or [18F]PSMA-MIC02 was added and vortexed for 1 minute and centrifuged for 5 min at […]. The different layers were separated and 100 µL of each layer were measured on a γ-counter. Based on the counts per minute (CPM) of each fraction, the partition coefficient was measured with the following formula: log(CPMoctanol/CPMPBS). The obtained data are as followed. Table S2. Counts per minute (CPM) of the 3 indidicually measured triplicates of [18F]PSMA-MIC01 of n- octanol and PBS. Octanol (CPM) PBS (CPM) BLK (CPM) LogD Mean SD […] No 1.2 2823.43 2715328.33 93.59 -2.99 […] No 2.3 394.49 640463.84 93.59 -3.21 […] No 3.2 3690.69 2357291.58 50.84 -2.81 No 3.3 5848.38 3956671.48 52.31 -2.83 -3.01 0.22 18 (1 picture or pasted object on this page, not shown here)

LNCaP (PSMA+) xenografts = test: ex vivo organ distribution, LNCaP xenograft mice; type: in vivo, Balb/c nude mice
Procedure: (§1) All groups were evaluated by visual assessment of the PET image and the percentage injected dose per gram (%ID g^−1).
(§2) The animal experiments were all performed according to the ethical guidelines and approved by the local animal welfare committee of the University of Groningen (IvD number 15166-06-001. All animals were caged separately in individually ventilated cages.
(§3) 7-12 week old immune deficient Balb/c nude mice were inoculated with 200 µL of a 1:1 suspension of medium containing approximately 4 x10^6 LNCaP cells (PSMA positive cells) or 5 x 10^6 PC3 cells (PSMA-negative cells) in RPMI-1640, and Matrigel Basement Membrane Matrix High concentration. The cells were subcutaneously inoculated on the right shoulder.
After 3 to 5 weeks for LNCaP-xenografts, 2-3 weeks for PC3-xenografts or when a tumor size of 1cm3 was reached, the animals were transported to the PET imaging facility. For the […]
prepared and 100 µL were injected via penile vein injection 30 min prior to the tracer injection. Animals were anesthetized at 5 % isoflurane and maintained under 2 % isoflurane enriched with O2. The dynamic PET scan was started within 5 min after tracer injection with an acquisition time of 90 min. The static scan was performed 60 min after tracer injection with an acquisition time of 30 min.
(§4) 7.2. Organ distribution and Metabolite analysis.
(§5) After sacrificing the animals, the organs were dissected and measured in a γ-counter. The obtained CPM’s were normalized to %ID/g (Table shown in main text). […]
(§6) In order to check for the significant differences, we also checked for the Cohen’s d, a measurement to determine the effect size. It is calculated on the following formula:
(§7) Cohen′sD = Mean1− Mean2 . […]

PC3 (PSMA-) xenografts = test: ex vivo organ distribution, PC3 xenograft mice; type: in vivo, Balb/c nude mice; settings: dissected after PET scan
Procedure: as §1, §2, §3
After 3 to 5 weeks for LNCaP-xenografts, 2-3 weeks for PC3-xenografts or when a tumor size of 1cm3 was reached, the animals were transported to the PET imaging facility. […]
Animals were anesthetized at 5 % isoflurane and maintained under 2 % isoflurane enriched with O2. The dynamic PET scan was started within 5 min after tracer injection with an acquisition time of 90 min. The static scan was performed 60 min after tracer injection with an acquisition time of 30 min.
as §4, §5, §6, §7

[2] = metabolite analysis of plasma and urine by TLC; type: in vivo, Balb/c nude mice; settings: PC3- or LNCaP-xenograft animals
From the text: as §4
After sacrificing the animals, the organs were dissected and measured in a γ-counter. The obtained CPM’s were normalized to %ID/g (Table shown in main text). For the metabolite analysis, urine and plasma samples were pipetted onto a TLC plate and run in a solution of 10 % MeCN in H2O and read out in an Amersham Typhoon (GE).Additionally to […]
metabolite analysis of two article, the image quantification based on the standardized different animals bearing a uptake value (SUV ) was performed. The obtained data PC3- or a LNCaP-xenograft. meanBW While in Plasma, no are represented in the following Table S6. Here, we show the metabolite were formed, the […]
results obtained by image quantification of the 4 different conclusive. groups. Comparison of tumor uptake in PSMA-expressing
LNCaP xenografts of (1) [68Ga]PSMA-11 and (2) [18F]PSMA-MIC01 (the same animals). (3) the PSMA-negative PC3 xenograft. (4) Confirmation of binding specificity of radiotracer [18F]PSMA-MIC01, by blocking PSMA in LNCaP-xenografts prior to radiotracer injection] using the potent PSMA-inhibitor 2-PMPA.
as §6, §7
(1 picture or pasted object on this page, not shown here)

[3] = LNCaP (PSMA+) xenograft blocked with 2-PMPA 30 min prior to tracer
[4] = LNCaP (PSMA+) xenograft, dissected after PET scan

With `O=C(O)CC[C@H](NC(=O)N[C@@H](CCCCNC(=O)c1ccc(-c2cn(CCOCCOCC[18F])nn2)cc1)C(=O)O)C(=O)O` [[^18F]PSMA‐MIC01] the “LogD, individual measurements” value ([1]; n-octanol/PBS pH 7.4, single measurements) was -3.03 and -2.99 and -3.02 and -3.27 and -3.20 and -3.21 and -2.72 and -2.81 and -2.83, the logD ([1]; n-octanol/PBS, pH 7.4, n-octanol/PBS pH 7.4, overall mean) was -3.01 ± 0.22 and the “ex vivo uptake bone” value (LNCaP (PSMA+) xenografts; [3]) was 0.3±0.1 %ID g^−1. For the same compound, the “ex vivo uptake brain” value (LNCaP (PSMA+) xenografts; [3]) was 0.1±0.0 %ID g^−1, the “ex vivo uptake heart” value (LNCaP (PSMA+) xenografts; [3]) was 0.7±0.5 %ID g^−1 and the “ex vivo uptake kidney” value (LNCaP (PSMA+) xenografts; [3]) was 28.5±20.7 %ID g^−1. The “ex vivo uptake large intestine” value (LNCaP (PSMA+) xenografts; [3]) was 0.9±0.3 %ID g^−1, the “ex vivo uptake liver” value (LNCaP (PSMA+) xenografts; [3]) was 5.7±1.4 %ID g^−1 and the “ex vivo uptake lungs” value (LNCaP (PSMA+) xenografts; [3]) was 1.1±0.3 %ID g^−1. For the same compound, the “ex vivo uptake muscles” value (LNCaP (PSMA+) xenografts; [3]) was 0.3±0.1 %ID g^−1, the “ex vivo uptake pancreas” value (LNCaP (PSMA+) xenografts; [3]) was 0.5±0.2 %ID g^−1 and the “ex vivo uptake plasma” value (LNCaP (PSMA+) xenografts; [3]) was 3.8±1.3 %ID g^−1. The “ex vivo uptake salivary glands” value (LNCaP (PSMA+) xenografts; [3]) was 1.0±0.8 %ID g^−1, the “ex vivo uptake small intestine” value (LNCaP (PSMA+) xenografts; [3]) was 1.2±1.5 %ID g^−1 and the “ex vivo uptake spleen” value (LNCaP (PSMA+) xenografts; [3]) was 1.0±0.2 %ID g^−1. The “ex vivo uptake stomach” value (LNCaP (PSMA+) xenografts; [3]) was 7.3±16.4 %ID g^−1, the “ex vivo uptake tumor” value (LNCaP (PSMA+) xenografts; [3]) was 2.8±0.8 %ID g^−1 and the “ex vivo uptake urine” value (LNCaP (PSMA+) xenografts; [3]) was 644±627 %ID g^−1. For the same compound, the “ex vivo uptake whole blood” value (LNCaP (PSMA+) xenografts; [3]) was 1.8±0.6 %ID g^−1, the “ex vivo uptake bone” value (LNCaP (PSMA+) xenografts; [4]) was 0.2±0.1 %ID g^−1 and the “ex vivo uptake brain” value (LNCaP (PSMA+) xenografts; [4]) was 0.1±0.0 %ID g^−1. For the same compound, the “ex vivo uptake heart” value (LNCaP (PSMA+) xenografts; [4]) was 0.6±0.4 %ID g^−1, the “ex vivo uptake kidney” value (LNCaP (PSMA+) xenografts; [4]) was 42.0±9.0 %ID g^−1 and the “ex vivo uptake large intestine” value (LNCaP (PSMA+) xenografts; [4]) was 1.4±1.5 %ID g^−1. The “ex vivo uptake liver” value (LNCaP (PSMA+) xenografts; [4]) was 5.6±1.3 %ID g^−1, the “ex vivo uptake lungs” value (LNCaP (PSMA+) xenografts; [4]) was 1.3±0.5 %ID g^−1 and the “ex vivo uptake muscles” value (LNCaP (PSMA+) xenografts; [4]) was 0.5±0.2 %ID g^−1. The “ex vivo uptake pancreas” value (LNCaP (PSMA+) xenografts; [4]) was 0.8±0.7 %ID g^−1, the “ex vivo uptake plasma” value (LNCaP (PSMA+) xenografts; [4]) was 0.9±5.2 %ID g^−1 and the “ex vivo uptake salivary glands” value (LNCaP (PSMA+) xenografts; [4]) was 0.5±0.3 %ID g^−1. For the same compound, the “ex vivo uptake small intestine” value (LNCaP (PSMA+) xenografts; [4]) was 1.6±2.1 %ID g^−1, the “ex vivo uptake spleen” value (LNCaP (PSMA+) xenografts; [4]) was 5.8±3.4 %ID g^−1 and the “ex vivo uptake stomach” value (LNCaP (PSMA+) xenografts; [4]) was 0.6±0.2 %ID g^−1. The “ex vivo uptake tumor” value (LNCaP (PSMA+) xenografts; [4]) was 11.8±4.2 %ID g^−1 and 11.7±4.2 %ID g^−1, the “ex vivo uptake urine” value (LNCaP (PSMA+) xenografts; [4]) was 314±420 %ID g^−1 and the “ex vivo uptake whole blood” value (LNCaP (PSMA+) xenografts; [4]) was 1.6±1.3 %ID g^−1. For the same compound, the “ex vivo uptake bone” value (PC3 (PSMA-) xenografts) was 0.5±0.2 %ID g^−1, the “ex vivo uptake brain” value (PC3 (PSMA-) xenografts) was 0.2±0.1 %ID g^−1 and the “ex vivo uptake heart” value (PC3 (PSMA-) xenografts) was 1.0±0.6 %ID g^−1. The “ex vivo uptake kidney” value (PC3 (PSMA-) xenografts) was 39.8±28.8 %ID g^−1, the “ex vivo uptake large intestine” value (PC3 (PSMA-) xenografts) was 1.4±0.5 %ID g^−1 and the “ex vivo uptake liver” value (PC3 (PSMA-) xenografts) was 9.4±2.9 %ID g^−1. For the same compound, the “ex vivo uptake lungs” value (PC3 (PSMA-) xenografts) was 2.1±1.1 %ID g^−1, the “ex vivo uptake muscles” value (PC3 (PSMA-) xenografts) was 0.6±0.3 %ID g^−1 and the “ex vivo uptake pancreas” value (PC3 (PSMA-) xenografts) was 0.8±0.3 %ID g^−1. The “ex vivo uptake plasma” value (PC3 (PSMA-) xenografts) was 6.0±3.5 %ID g^−1, the “ex vivo uptake salivary glands” value (PC3 (PSMA-) xenografts) was 1.1±0.6 %ID g^−1 and the “ex vivo uptake small intestine” value (PC3 (PSMA-) xenografts) was 1.3±0.6 %ID g^−1. The “ex vivo uptake spleen” value (PC3 (PSMA-) xenografts) was 3.1±1.4 %ID g^−1, the “ex vivo uptake stomach” value (PC3 (PSMA-) xenografts) was 1.2±0.6 %ID g^−1 and the “ex vivo uptake tumor” value (PC3 (PSMA-) xenografts) was 3.0±1.8 %ID g^−1 and 3.0±1.7 %ID g^−1. The “ex vivo uptake urine” value (PC3 (PSMA-) xenografts) was 184±260 %ID g^−1, the “ex vivo uptake whole blood” value (PC3 (PSMA-) xenografts) was 3.4±1.8 %ID g^−1 and the metabolites in plasma [2] was “no”.

Reference: PMC7496508, “Modular Medical Imaging Agents Based on Azide–Alkyne Huisgen Cycloadditions: Synthesis and Pre‐Clinical Evaluation of ^18F‐Labeled PSMA‐Tracers for Prostate Cancer Imaging” (Chemistry (Weinheim an Der Bergstrasse, Germany), 2020)
